pIC50: −log10 of the molar value.
Experiments:
[1] = system: human colorectal cancer HCT 116 cells; test: Anticancer activity in nude mice transplanted with HCT 116 cells; type: in vivo, nude mice (Balb/c-nu/nu mice); details: for side effects (such as a change in bodyweight) during the test period: 0.02, 0.2 and 2 mg/kg orally for 21 days
Method: HCT 116 cells were prepared at a concentration of 2×10^6 cells/200 μl (RPMI) and administered subcutaneously into the right frank of 6-week-old female nude mice (Balb/c-nu/nu mice). The tumor size was measured with calipers, and the tumor size reached about 100 mm^3, 20 mice having substantially the same tumor size were divided into a control group and three sample-treated groups. The three sample-treated group were administered orally with IB-MECA at doses of 0.02, 0.2 and 2 mg/kg, respectively, for 21 days. In the control group and the sample-treated groups, the bodyweight was measured once every week, and the tumor size was measured at intervals of 3-4 days. The tumor volume was measured using equation 3 above. In the equation, a represents the longer diameter of the tumor, b represents the shorter diameter of the tumor, and c represents the height of the tumor.
Anticancer activity was measured by an animal test in the same manner as Example 20, except that 6-week-old female nude mice were administered with Cl-IB-MECA in place of IB-MECA as a sample.
Anticancer activity was measured by an animal test in the same manner as Example 20, except that 6-week-old female nude mice were administered with thio-Cl-IB-MECA in place of IB-MECA as a sample.

[2] = system: human colorectal cancer HCT 116 cells; test: SRB assay, growth of HCT 116 cells; type: cell-based; details: 72 hours; for growth of HCT 116 cells: 100, 50, 25 and 12.5 μM; for pIC50: SRB
Method: In order to compare the inhibitory effect of thio-Cl-IB-MECA of the present invention on the inhibition of human colorectal cancer HCT 116 cells with the effects of other A3 adenosine receptor agonists, IB-MECA and Cl-IB-MECA, a sulforhodamine B (SRB) assay was performed.
Specifically, 10 μL of a solution of thio-Cl-IB-MECA in 10% dimethylsulfoxide (DMSO) was loaded in each well of a 96-well plate in triplicate at concentrations of 100, 50, 25 and 12.5 μM, thus making a test plate. Cells were diluted to a density of 5×10^4 cells/ml with 10% FBS-containing RPMI 1640 medium supplemented with antibiotics-antimycotics, and 190 μL of the cell suspension was added to each well so as to reach a total volume of 200 μL and was cultured in a 5% CO2 incubator at 37° C. for 3 days. At the same time, 190 μL of the same cell suspension was loaded into each of 16 wells or more of a fresh 96-well plate containing no sample (thio-Cl-IB-MECA) and was cultured in a 5% CO2 incubator at 37° C. for 30 minutes, thereby determining reference date. After the culture, 50 μL of 50% trichloroacetic acid (TCA) was added to each well, and the cells were fixed by culture at 4° C. for 1 hour. Then, the well plate was washed five times with tap water and dried. 100 μL of a 1% acetic acid solution containing […] sulforhodamine B (SRB) was added to each well to stain the cells, and the well plate was allowed to stand at room temperature for 1 hour. After the well plate has been washed five times with 1% acetic acid and sufficiently dried, 200 μL of 100 mM Tris-base was added to each well, and the bound staining liquid was dissolved and sufficiently shaken in a shaker. Then, the absorbance at 515 nm was measured using an ELISA microplate reader. Based on the measured absorbance, the cell viability of the test group relative to the control group was calculated using equation 2 above. Based on the viability at each concentration, the IC50 value of the test sample was calculated using TableCurve program.
In the cases of IB-MECA or Cl-IB-MECA, the viability of cancer cells was examined in the same manner as the case of thio-Cl-IB-MECA.

LPS-induced sepsis = test: Animal model with LPS-induced sepsis; type: in vivo, ICR mice; details: LPS (S. marcenes) 2 mg/kg then 10 mg/kg
Method: The effect of the inventive composition (thio-Cl-IB-MECA) in an animal model with LPS-induced sepsis was tested. S. marcenes-derived LPS used in the test is known to be strongly pathogenic compared to E. coli-derived LPS. First, LPS was administered at low dose to attenuate an immune response in animals, and after a given time, it was administered at high dose to rapidly induce sepsis and septic shock. Specifically, ICR mice (20-25 g, male) were divided into the following 5 groups, each consisting of 6 mice: a normal group not treated with any substance; a control group administered with only saline; groups administered with the inventive composition (200 and 500 μg/kg of thio-Cl-IB-MECA); and a group administered with the conventional A3 adenosine receptor agonist (500 μg/kg IB-MECA). 30 minutes administration of these drugs, a solution of 2 mg/kg LPS (S. marcenes) in saline was administered intraabdominally. After 20 hours, the drug was administered again, and 30 minutes, LPS (S. marcenes) was administered again at a dose of 10 mg/kg. The mice were observed hourly up to 6 hours after the second stimulation, and the survival rate was observed up to 7 days after the second stimulation. The effect of the inventive composition (thio-Cl-IB-MECA) was compared with the effect of the prior A3 adenosine receptor agonist (IB-MECA), and the effects of the inventive composition (thio-Cl-IB-MECA) at different doses (200 and 500 μg/kg) were compared with each other.
The change in bodyweight was measured before the start of the test, before the second administration of the drug, and 7 days after the second administration.

| SMILES | inhibition rate of tumor growth ([1]; 0.02 mg/kg orally for 21 days) [%] | inhibition rate of tumor growth ([1]; 0.2 mg/kg orally for 21 days) [%] | inhibition rate of tumor growth ([1]; 2 mg/kg orally for 21 days) [%] | side effects (such as a change in bodyweight) during the test period [1] | growth of HCT 116 cells [2] | pIC50 [2] | survival rate after 1 day (LPS-induced sepsis; 500 μg/kg) [%] | survival rate after 1 day (LPS-induced sepsis; 200 μg/kg) [%] |
| --- | --- | --- | --- | --- | --- | --- | --- | --- |
| CNC(=O)[C@H]1O[C@@H](n2cnc3c(NCc4cccc(I)c4)ncnc32)[C@H](O)[C@@H]1O [IB-MECA] | 20.7 | 48.7 | 58.6 | survived healthfully without particular side effects | concentration-dependently inhibited the growth | 4.21 | 66.7 | – |
| CNC(=O)[C@H]1S[C@@H](n2cnc3c(NCc4cccc(I)c4)nc(Cl)nc32)[C@H](O)[C@@H]1O [thio-Cl-IB-MECA, 2-chloro-N^6-(3-iodobenzyl)-4′-thioadenosine-5′-N-methyluronamide] | 16.1 | 54.4 | 62.1 | survived healthfully without particular side effects | concentration-dependently inhibited the growth | 4.43 | 66.7 | 71.4 |
